# Assay results as given in patent US20080306038A1, “Compositions and Methods for Modulating Inflammation Using Fluoroquinolones” (priority 2007, published 2008).
# What was measured:
# Format in all cases: cell-based, human
# Fractalkine = assay: LPS-stimulated fractalkine production in THP-1 monocytes (multiplex Luminex); details: 0.1-30 μg/mL, 18 hours
# Description: (§1) Human THP-1 monocytes (ATCC TIB 202) were purchased from American Type Culture Collection (Manassas, Va.) and maintained in RPMI 1640 medium (Invitrogen, Carlsbad, Calif.) supplemented with 10% fetal bovine serum (“FBS”, Invitrogen, Carlsbad, Calif.), 100 U/mL of penicillin (Invitrogen, Carlsbad, Calif.), and 100 μg/mL of streptomycin (Invitrogen, Carlsbad, Calif.) at 37° C. in a humidified incubator with 5% CO2. THP-1 cells were pre-cultured in RPMI 1640 medium containing 10% dialyzed serum for 24 h. […] Each treatment was performed in triplicate.
# (§2) Samples were analyzed using multiplex bead technology, which utilizes microspheres as the solid support for immunoassays and allows the analysis of all cytokines from each sample (D. A. Vignali, J. Immunol. Methods, Vol. 243, 243-255 (2000)). Sixteen cytokines were measured according to the manufacturer's instructions. Briefly, 50 μL of medium samples were incubated with antibody-coated capture beads overnight at 4° C. […] Samples were analyzed using Luminex 200™ (Luminex, Austin, Tex.) and Beadview software v1.0 (Upstate Cell Signaling Solutions, Temecula, Calif.). Standard curves of known concentrations of recombinant human cytokines were used to convert fluorescence units (median fluorescence intensity) to cytokine concentration in pg/mL. […]
# (§3) All cytokine concentrations (pg/mL) were expressed as mean ±standard deviation. […]
# G-CSF = assay: LPS-stimulated G-CSF production in THP-1 monocytes (multiplex Luminex); set-up: key to Inhibition of LPS-stimulated G-CSF production: “X” signifies significant inhibition at a particular concentration
# Description: as §1
# (§4) Samples were analyzed using multiplex bead technology, which utilizes microspheres as the solid support for immunoassays and allows the analysis of all cytokines from each sample (D. A. Vignali, J. Immunol. Methods, Vol. 243, 243-255 (2000)). Sixteen cytokines were measured according to the manufacturer's instructions. Briefly, 50 μL of medium samples were incubated with antibody-coated capture beads overnight at 4° C. Washed beads were further incubated with biotin-labelled anti-human cytokine antibodies for 2 h at room temperature followed by incubation with streptavidin-phycoerythrin for 30 min. Samples were analyzed using Luminex 200™ (Luminex, Austin, Tex.) and Beadview software v1.0 (Upstate Cell Signaling Solutions, Temecula, Calif.). Standard curves of known concentrations of recombinant human cytokines were used to convert fluorescence units (median fluorescence intensity) to cytokine concentration in pg/mL. Only the linear portions of the standard curves were used to quantify cytokine concentrations, and in instances where the fluorescence reading exceeded the linear range of the standard curve, an appropriate dilution was performed to ensure that the concentration was in the linear portion of the curve.
# (§5) All cytokine concentrations (pg/mL) were expressed as mean ±standard deviation. Statistical analysis comparing effects of treatment across groups was performed using a one-way ANOVA with a Dunnett's post-hoc comparison test using either vehicle control or LPS treatment as references. For all assays, p≦0.05 was predetermined as the criterion of statistical significance.
# GM-CSF = assay: LPS-stimulated GM-CSF production in THP-1 monocytes (multiplex Luminex); set-up: key to Inhibition of LPS-stimulated GM-CSF production: “X” signifies significant inhibition at a particular concentration
# Description: as §1, §4
# (§6) All cytokine concentrations (pg/mL) were expressed as mean ±standard deviation. Statistical analysis comparing effects of treatment across groups was performed using a one-way ANOVA with a Dunnett's post-hoc comparison test using either vehicle control or LPS treatment as references. […]
# IL-12p40 = assay: LPS-stimulated IL-12p40 production in THP-1 monocytes (multiplex Luminex); set-up: key to Inhibition of LPS-stimulated IL-12p40 production: “X” signifies significant inhibition at a particular concentration; details: 18 hours
# Description: as §1, §4, §5
# IL-1α = assay: LPS-stimulated IL-1α production in THP-1 monocytes (multiplex Luminex); set-up: key to Inhibition of LPS-stimulated IL-1α production: “X” signifies significant inhibition at a particular concentration
# Description: as §1, §4, §5
# IL-1β = assay: LPS-stimulated IL-1β production in THP-1 monocytes (multiplex Luminex); set-up: key to Inhibition of LPS-stimulated IL-1β production: “X” signifies significant inhibition at a particular concentration
# Description: as §1, §4, §5
# IL-1ra = assay: LPS-stimulated IL-1ra production in THP-1 monocytes (multiplex Luminex); set-up: key to Inhibition of LPS-stimulated IL-1ra production: “X” signifies significant inhibition at a particular concentration; details: for Inhibition of LPS-stimulated IL-1ra production: 18 hours
# Description: as §1, §4, §5
# IL-6 = assay: LPS-stimulated IL-6 production in THP-1 monocytes (multiplex Luminex); set-up: key to Inhibition of LPS-stimulated IL-6 production: “X” signifies significant inhibition at a particular concentration
# Description: as §1, §4, §5
# IL-8 = assay: LPS-stimulated IL-8 production in THP-1 monocytes (multiplex Luminex); set-up: key to Inhibition of LPS-stimulated IL-8 production: “X” signifies significant inhibition at a particular concentration
# Description: as §1, §4, §5
# IP-10 = assay: LPS-stimulated IP-10 production in THP-1 monocytes (multiplex Luminex); set-up: key to Inhibition of LPS-stimulated IP-10 production: “X” signifies significant inhibition at a particular concentration
# Description: as §1, §4, §5
# MCP-1 = assay: LPS-stimulated MCP-1 production in THP-1 monocytes (multiplex Luminex); set-up: key to Inhibition of LPS-stimulated MCP-1 production: “X” signifies significant inhibition at a particular concentration
# Description: as §1, §4, §6
# MIP-1α = assay: LPS-stimulated MIP-1α production in THP-1 monocytes (multiplex Luminex); set-up: key to Inhibition of LPS-stimulated MIP-1α production: “X” signifies significant inhibition at a particular concentration
# Description: as §1, §4, §5
# RANTES = assay: LPS-stimulated RANTES production in THP-1 monocytes (multiplex Luminex); details: 0.1-30 μg/mL, 18 hours
# Description: as §1, §2, §3
# VEGF = assay: LPS-stimulated VEGF production in THP-1 monocytes (multiplex Luminex); set-up: key to Inhibition of LPS-stimulated VEGF production: “X” signifies significant inhibition at a particular concentration; details: for Inhibition of LPS-stimulated VEGF production: 18 hours, THP-1 monocytes
# Description: as §1, §4, §5
# [1] = 1 μg/mL compound + 10 μg/mL LPS, 18 hours, THP-1 monocytes
# [2] = 10 μg/mL compound + 10 μg/mL LPS, 18 hours, THP-1 monocytes
# [3] = 30 μg/mL compound + 10 μg/mL LPS, 18 hours, THP-1 monocytes
# [4] = FIG. 2, LPS-stimulated THP-1 monocytes
# [5] = LPS-induced, THP-1 monocytes, 18 hours
# [6] = 30 μg/mL compound + 10 μg/mL LPS
compound,measurement,setting,value
N[C@@H]1CCCCN(c2c(F)cc3c(=O)c(C(=O)O)cn(C4CC4)c3c2Cl)C1 [Compound Having Formula IV],Effect on LPS-stimulated production of fractalkine,Fractalkine,Neither moxifloxacin nor compound having Formula IV altered
same,Inhibition of LPS-stimulated G-CSF production,G-CSF; [1],X
same,Inhibition of LPS-stimulated G-CSF production,G-CSF; [2],X
same,Inhibition of LPS-stimulated G-CSF production,G-CSF; [3],X
same,Relative potency of compound having Formula IV and moxifloxacin on G-CSF,G-CSF; [4],better potency than moxifloxacin
same,Concentration with significant inhibitory effect on G-CSF,"G-CSF; LPS-induced, THP-1 monocytes",1000 ng/mL
same,Concentration at which a significant inhibitory effect was observed for G-CSF,G-CSF; [5],1 µg/mL
same,Inhibition of LPS-stimulated GM-CSF production,GM-CSF; [3],X
same,"Comparison of moxifloxacin and compound having Formula IV, effect on GM-CSF after LPS stimulation","GM-CSF; FIG. 1, THP-1 monocytes",comparable effects
same,Concentration at which a significant inhibitory effect was observed for GM-CSF,GM-CSF; [5],30 µg/mL
same,Inhibition of LPS-stimulated IL-12p40 production,IL-12p40; [6],X
same,Concentration at which a significant inhibitory effect was observed for IL-12p40,IL-12p40; LPS-induced,30 µg/mL
same,Inhibition of LPS-stimulated IL-1α production,"IL-1α; 0.1 μg/mL compound + 10 μg/mL LPS, 18 hours, THP-1 monocytes",X
same,Inhibition of LPS-stimulated IL-1α production,IL-1α; [1],X
same,Inhibition of LPS-stimulated IL-1α production,IL-1α; [2],X
same,Inhibition of LPS-stimulated IL-1α production,IL-1α; [3],X
same,Relative potency of compound having Formula IV and moxifloxacin on IL-1α,IL-1α; [4],better potency than moxifloxacin
same,Lowest concentration with significant inhibitory effect on IL-1α,"IL-1α; LPS-induced, THP-1 monocytes",100 ng/mL
same,Concentration at which a significant inhibitory effect was observed for IL-1α,IL-1α; [5],0.1 µg/mL
same,Inhibition of LPS-stimulated IL-1β production,IL-1β; [3],X
same,"Comparison of moxifloxacin and compound having Formula IV, effect on IL-1β after LPS stimulation","IL-1β; FIG. 1, THP-1 monocytes",comparable effects
same,Concentration at which a significant inhibitory effect was observed for IL-1β,IL-1β; [5],30 µg/mL
same,Inhibition of LPS-stimulated IL-1ra production,"IL-1ra; 1 μg/mL compound + 10 μg/mL LPS, THP-1 monocytes",X
same,Inhibition of LPS-stimulated IL-1ra production,"IL-1ra; 10 μg/mL compound + 10 μg/mL LPS, THP-1 monocytes",X
same,Inhibition of LPS-stimulated IL-1ra production,"IL-1ra; 30 μg/mL compound + 10 μg/mL LPS, THP-1 monocytes",X
same,Relative potency of compound having Formula IV and moxifloxacin on IL-1ra,IL-1ra; [4],better potency than moxifloxacin
same,Concentration with significant inhibitory effect on IL-1ra,"IL-1ra; LPS-induced, THP-1 monocytes",1000 ng/mL
same,Inhibition of LPS-stimulated IL-6 production,IL-6; [1],X
same,Inhibition of LPS-stimulated IL-6 production,IL-6; [2],X
same,Inhibition of LPS-stimulated IL-6 production,IL-6; [3],X
same,Relative potency of compound having Formula IV and moxifloxacin on IL-6,IL-6; [4],better potency than moxifloxacin
same,Concentration with significant inhibitory effect on IL-6,"IL-6; LPS-induced, THP-1 monocytes",1000 ng/mL
same,Concentration at which a significant inhibitory effect was observed for IL-6,IL-6; [5],1 µg/mL
same,Inhibition of LPS-stimulated IL-8 production,IL-8; [3],X
same,"Comparison of moxifloxacin and compound having Formula IV, effect on IL-8 after LPS stimulation","IL-8; FIG. 1, THP-1 monocytes",comparable effects
same,Concentration at which a significant inhibitory effect was observed for IL-8,IL-8; [5],30 µg/mL
same,Inhibition of LPS-stimulated IP-10 production,IP-10; [3],X
same,"Comparison of moxifloxacin and compound having Formula IV, effect on IP-10 after LPS stimulation","IP-10; FIG. 1, THP-1 monocytes",comparable effects
same,Concentration at which a significant inhibitory effect was observed for IP-10,IP-10; [5],30 µg/mL
same,Inhibition of LPS-stimulated MCP-1 production,MCP-1; [3],X
same,"Comparison of moxifloxacin and compound having Formula IV, effect on MCP-1 after LPS stimulation","MCP-1; FIG. 1, THP-1 monocytes",comparable effects
same,Concentration at which a significant inhibitory effect was observed for MCP-1,MCP-1; [5],30 µg/mL
same,Inhibition of LPS-stimulated MIP-1α production,MIP-1α; [3],X
same,"Comparison of moxifloxacin and compound having Formula IV, effect on MIP-1α after LPS stimulation","MIP-1α; FIG. 1, THP-1 monocytes",comparable effects
same,Concentration at which a significant inhibitory effect was observed for MIP-1α,MIP-1α; [5],30 µg/mL
same,Effect on LPS-stimulated production of RANTES,RANTES,Neither moxifloxacin nor compound having Formula IV altered
same,Inhibition of LPS-stimulated VEGF production,VEGF; 10 μg/mL compound + 10 μg/mL LPS,X
same,Inhibition of LPS-stimulated VEGF production,VEGF; [6],X
same,Relative potency of compound having Formula IV and moxifloxacin on VEGF,VEGF; [4],better potency than moxifloxacin
